Results from the supplement of paper PMC10307832.

Experiments:
Assay in all cases: relative viability (nuclei count vs DMSO), 5 days (fraction); higher = more cells survive
GSK126 + Tozasertib = compound: CC[C@H](C)N1C=C(C2=C(C=C(C=C21)C3=CN=C(C=C3)N4CCNCC4)C(=O)NCC5=C(C=C(NC5=O)C)C)C [GSK126] + Cc1cc(Nc2cc(N3CCN(C)CC3)nc(Sc3ccc(NC(=O)C4CC4)cc3)n2)n[nH]1 [Tozasertib] (partner 0.1 µM)
Summary of the method: (§1)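 Relative viability equals treated-well nuclei counts divided by vehicle-well nuclei counts. Counts came from 4× images of lung cancer cell lines grown in 1536-well plates for 5 days after pin-tool dosing on the day after seeding. Dosing used one drug alone or a fixed anchor-drug dose plus five library-drug doses (not always all listed) in √10 steps, and values are medians of duplicate plates.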

MLN4924 + Palbociclib = compound: NS(=O)(=O)OC[C@@H]1C[C@@H](n2ccc3c(N[C@H]4CCc5ccccc54)ncnc32)C[C@@H]1O [MLN4924] + CC(=O)c1c(C)c2cnc(Nc3ccc(N4CCNCC4)cn3)nc2n(C2CCCC2)c1=O [Palbociclib] (partner 0.5 µM)
Summary of the method: as §1

MLN4924 + Alpelisib = compound: NS(=O)(=O)OC[C@@H]1C[C@@H](n2ccc3c(N[C@H]4CCc5ccccc54)ncnc32)C[C@@H]1O [MLN4924] + Cc1nc(NC(=O)N2CCC[C@H]2C(N)=O)sc1-c1ccnc(C(C)(C)C(F)(F)F)c1 [Alpelisib] (partner 2 µM)
Summary of the method: as §1

MLN4924 + Decitabine = compound: NS(=O)(=O)OC[C@@H]1C[C@@H](n2ccc3c(N[C@H]4CCc5ccccc54)ncnc32)C[C@@H]1O [MLN4924] + Nc1ncn([C@H]2C[C@H](O)[C@@H](CO)O2)c(=O)n1 [Decitabine] (partner 2 µM)
Summary of the method: as §1

Cell Line | relative viability (GSK126 + Tozasertib; first compound 0.08 µM) | relative viability (GSK126 + Tozasertib; first compound 0.253 µM) | relative viability (GSK126 + Tozasertib; first compound 0.8 µM) | relative viability (GSK126 + Tozasertib; first compound 2.53 µM) | relative viability (GSK126 + Tozasertib; first compound 8 µM) | relative viability (MLN4924 + Palbociclib; first compound 0.04 µM) | relative viability (MLN4924 + Palbociclib; first compound 0.1265 µM) | relative viability (MLN4924 + Palbociclib; first compound 0.4 µM) | relative viability (MLN4924 + Palbociclib; first compound 1.265 µM) | relative viability (MLN4924 + Palbociclib; first compound 4 µM) | relative viability (MLN4924 + Alpelisib; first compound 0.04 µM) | relative viability (MLN4924 + Alpelisib; first compound 0.1265 µM) | relative viability (MLN4924 + Alpelisib; first compound 0.4 µM) | relative viability (MLN4924 + Alpelisib; first compound 1.265 µM) | relative viability (MLN4924 + Alpelisib; first compound 4 µM) | relative viability (MLN4924 + Decitabine; first compound 0.04 µM) | relative viability (MLN4924 + Decitabine; first compound 0.1265 µM) | relative viability (MLN4924 + Decitabine; first compound 0.4 µM) | relative viability (MLN4924 + Decitabine; first compound 1.265 µM) | relative viability (MLN4924 + Decitabine; first compound 4 µM)
NCI-H1734 | 0.322 | 0.235 | 0.295 | 0.224 | 0.283 | 0.372 | 0.341 | 0.272 | 0.14 | 0.146 | 0.947 | 0.95 | 0.246 | 0.139 | 0.118 | 0.514 | 0.472 | 0.197 | 0.141 | 0.135
NCI-H460 | 0.419 | 0.33 | 0.574 | 0.352 | 0.103 | 0.189 | 0.121 | 0.0985 | 0.0213 | 0.0283 | 0.677 | 0.688 | 0.662 | 0.0819 | 0.0199 | 0.524 | 0.462 | 0.325 | 0.0402 | 0.0249
NCI-H838 | 0.293 | 0.269 | 0.255 | 0.261 | 0.242 | 0.253 | 0.256 | 0.175 | 0.138 | 0.138 | 0.795 | 0.658 | 0.261 | 0.168 | 0.148 | 0.351 | 0.257 | 0.224 | 0.176 | 0.186
NCI-H2347 | 0.664 | 0.603 | 0.635 | 0.597 | 0.444 | 0.426 | 0.46 | 0.399 | 0.312 | 0.339 | 1.02 | 0.865 | 0.638 | 0.33 | 0.382 | 0.623 | 0.694 | 0.495 | 0.413 | 0.335
NCI-H1395 | 0.787 | 0.763 | 0.831 | 0.683 | 0.669 | 0.726 | 0.679 | 0.528 | 0.357 | 0.354 | 1.05 | 0.812 | 0.553 | 0.343 | 0.365 | 0.704 | 0.596 | 0.461 | 0.359 | 0.346
NCI-H647 | 0.375 | 0.268 | 0.288 | 0.282 | 0.126 | 0.22 | 0.264 | 0.0524 | 0.029 | 0.0424 | 1.04 | 0.653 | 0.18 | 0.0485 | 0.0516 | 0.363 | 0.221 | 0.142 | 0.0732 | 0.0787
NCI-H520 | 0.594 | 0.426 | 0.48 | 0.443 | 0.352 | 0.224 | 0.226 | 0.153 | 0.145 | 0.156 | 0.535 | 0.432 | 0.308 | 0.22 | 0.181 | 0.447 | 0.338 | 0.249 | 0.148 | 0.207
